Measured values from patent US7700584B2 (Hangzhou Minsheng Pharmaceuticals Co., Ltd., priority 2004, dated 2010).
Where a name gives a salt, the structure may show the parent alone. Read-outs that look alike come from different tables or passages of the source.

How the values were obtained:
[1] = test system: A-549 human lung adenocarcinoma; assay: In vitro inhibition rate to tumor cells (MTT), A-549; format: cell-based; settings: for inhibition rate, Results (%) A-549: 50 μg/ml; for inhibition at 50 µg/mL: Homo sapiens, A549, 50 μg/ml, read-out: inhibition rate, Results (%) A-549
[2] = test system: SMMC-7721 human hepatic carcinoma; assay: In vitro inhibition rate to tumor cells (MTT), SMMC-7721; format: cell-based; settings: for inhibition rate, Results (%) SMMC-7721: 50 μg/ml; for inhibition at 50 µg/mL: Homo sapiens, SMMC-7721, 50 μg/ml, read-out: inhibition rate, Results (%) SMMC-7721
[3] = test system: HL-60 human promyelocytic leukemia; assay: In vitro inhibition rate to tumor cells (MTT), HL-60; format: cell-based; settings: for inhibition rate, Results (%) HL-60: 50 μg/ml; for inhibition at 50 µg/mL: Homo sapiens, HL-60, 50 μg/ml, read-out: inhibition rate, Results (%) HL-60
[4] = test system: LLC mouse Lewis lung carcinoma; assay: In vitro inhibition rate to tumor cells (MTT), LLC; format: cell-based; settings: 50 μg/ml; for inhibition at 50 µg/mL: Mus musculus, Lewis lung carcinoma
[5] = test system: U-937 human histocytic lymphoma; assay: In vitro anti-tumor IC50 (MTT), U-937; format: cell-based; settings: Table 4
Protocol: (§1) (1) Single cell suspension was seeded into 96-well plates (the cells was diluted in the PRMI-1640 minimum medium to 3×10^4 cells/ml, […] diluted cells/well). […] The experiments were performed in quadruplicate.
(§2) (2) The medium was removed. Solutions of the anti-tumor agents (50 compounds) were prepared in a freshly prepared medium at serial concentrations. […] of the solution was added into each well. Incubation was continued for 48 hours.
(§3) (3) 20 ug of 2 mg/ml MTT was added into each well, and incubated for 4 hours.
(§4) (4) The medium was removed from the well. The microplates were swiftly turned down to throw-off the medium. […] of DMSO was added into each well, and vortexed at room temperature for 10 minutes.
(§5) (5) OD value (λ=570 nm) was measured with an Enzyme-Linked Detector.
(§6) (6) The graph of cell vitality was plotted, and IC50 was calculated.

[6] = test system: MCF-7 human mammary adenocarcinoma; assay: In vitro anti-tumor IC50 (MTT), MCF-7; format: cell-based; settings: Table 4
Protocol: as §1, §2, §3, §4, §5, §6

[7] = test system: HL-60 human promyelocytic leukemia; assay: In vitro anti-tumor IC50 (MTT), HL-60; format: cell-based; settings: Table 4
Protocol: as §1, §2, §3, §4, §5, §6

[8] = target: T1, HIV-1 proteinase (HIV-1 PR) (Human immunodeficiency virus type 1 group M subtype B, UniProt P04585); assay: Screening for in vitro activity against HIV-1 proteinase; format: biochemical
T1 construct: HIV-1 proteinase digests the fluorescent-labeled substrate; purchased
Procedure, shortened: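 Recombinant HIV-1 PR cleaves a fluorescent-labeled substrate in reaction buffer. Samples were dissolved in DMSO and serially diluted 5-fold in water (five dilutions), then added before the enzyme. Fluorescence of the product was read after incubation; indinavir was the positive control.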

[9] = target: T2, HIV-1 reverse transcriptase (Human immunodeficiency virus type 1 group M subtype B, UniProt P04585); assay: Screening for the in vitro activity against the HIV-1 reverse transcriptase; format: biochemical
T2 construct: purchased
Protocol: Principle of the test: The template to which the HIV-1 reverse transcriptase interacts was covered onto the enzyme-lined template. In the optimal reaction conditions and system, HIV-1 RT will put the substrate comprising Biotin-dUTP onto the reaction template. The activity of the enzyme was measured as the amount of the integrating Biotin-dUTP in the reaction by using streptavidin-labeled horseradish peroxidase. Adding the sample to the reaction system can identify inhibitor of the enzyme.
1. HIV-1 RT: commercially available.
2. Treatment of the samples: Before use, the sample was dissolved in DMSO at a suitable concentration, then serially diluted (5×) with double distilled water, five serial dilutions per sample.
4. Methods: The diluted sample was added into the reaction buffer containing Biotin-dUTP and the genetic engineered target enzyme, and incubated in the optimal reaction conditions. A streptavidin-labeled horseradish peroxidase was added to visual the system, and OD450 was measured.

[10] = target: T3, HIV-1 integrase (HIV-1 IN) (Human immunodeficiency virus type 1 group M subtype B, UniProt P04585); assay: Screening for the activity against HIV-1 integrase; format: biochemical
T3 construct: a purified HIV-1 integrase was added into each well; purchased
Protocol: Principle of the test: A synthetic oligonucleotide of 30 nt was used as the donor substrate. A synthetic oligonucleotide of 20 nt was used as the target substrate. A 96-well plate was covered by the donor substrate, and a purified HIV-1 integrase was added into each well. ELISA was performed to measure the product of the target DNA chain transfer. A biotin-labeled alkali phosphatase was used to visual the system. OD value was measured by an Enzyme-linked Detector. Add a sample into the reaction system for screening the inhibitor of the enzyme.
1. HIV-1 IN: commercially available.
2. Treatment of the samples: Before use, the sample was dissolved in water or DMSO at a suitable concentration, then serially diluted (5×), four serial dilutions per sample. The stock solutions of two samples were 100-fold diluted with DMSO, then 5-fold diluted, four serial dilutions per sample. Positive control: S-y, provided by Shanghai Organic Chemistry Institute.
3. The donor substrate and target substrate: synthesized by Shanghai Biological Engineering Company (Shanghai Shenggong).
4. Methods: The diluted sample was added into a 96-well plate covered by the donor substrate, and then added into the reaction buffer containing the genetic engineered target enzyme and biotin-target substrate, incubated in the optimal reaction conditions. A biotin-labeled alkali phosphatase was used to visual the system to determine the absorbance at 450 nm (OD450).

293 cells = assay: Cell status of 293 cells treated with sample alone (herpes virus screening); settings: for Cytopathy and cell status, Sample: 24 hrs
[11] = IC50, five 5× serial dilutions from 50 μg/ml
[12] = Table 2 (repeated screening), hydrochloride

SMILES: C=C1CC2(OS(=O)(=O)[O-])OC3(CC2C(C)C)C(C)CCC13.[Na+] (stereo not shown) [Compound 21, Curcumol sodium sulfonate]
- inhibition rate, Results (%) A-549 ([1]; Table 1): 26.42%
- inhibition rate, Results (%) A-549 ([1]; Table 2 (repeated screening)): 20.01%
- inhibition rate, Results (%) A-549 ([1]; Table 3 (repeated screening)): 1.23%
- inhibition rate, Results (%) SMMC-7721 ([2]; Table 1): −7.26%
- inhibition rate, Results (%) SMMC-7721 ([2]; Table 2 (repeated screening)): −1.82%
- inhibition rate, Results (%) SMMC-7721 ([2]; Table 3 (repeated screening)): −2.93%
- inhibition rate, Results (%) HL-60 ([3]; Table 1): 93.12%
- inhibition rate, Results (%) HL-60 ([3]; Table 2 (repeated screening)): 90.89%
- inhibition rate, Results (%) HL-60 ([3]; Table 3 (repeated screening)): 89.79%
- inhibition rate, Results (%) LLC ([4]; Table 1): 10.47%
- inhibition rate, Results (%) LLC ([4]; Table 2 (repeated screening)): 1.89%
- inhibition rate, Results (%) LLC ([4]; Table 3 (repeated screening)): 7.58%
- IC50 ([5]; Homo sapiens, U-937, read-out: IC50 (ug/ml) against tumor cell lines, U-937): 0.89 µg/mL
- IC50 ([6]; Homo sapiens, MCF7, read-out: IC50 (ug/ml) against tumor cell lines, MCF): 4.99 µg/mL
- IC50 ([7]; Homo sapiens, HL-60, read-out: IC50 (ug/ml) against tumor cell lines, HL-60): 1.3 µg/mL
- Inhibition rate ([8]; 0.08 μg/ml): 8.74
- Inhibition rate ([8]; 0.40 μg/ml): 14.77
- Inhibition rate ([8]; 2.0 μg/ml): 5.86
- Inhibition rate ([8]; 10 μg/ml): 10.16
- Inhibition rate ([8]; 50 μg/ml): 5.47
- IC50 [8, 11]: > 148 µM
- IC50 ([9]; IC50, initial concentration 200 μg/ml): > 591 µM
- IC50 ([10]; initial concentration 100 μg/ml): — (indicates that the initial concentration of the sample had a inhibition rate of less than 50% against HIV-1 IN.)
- cell status of 12 and 24 h (293 cells; 12.5 μg/ml): Good
- cell status of 12 and 24 h (293 cells; 25 μg/ml): Good
- cell status of 12 and 24 h (293 cells; 50 μg/ml): Good
- cell status of 12 and 24 h (293 cells; 100 μg/ml): Good
- cell status of 12 and 24 h (293 cells; 200 μg/ml): Normal
- Cytopathy and cell status, Sample (293 cells; 200 μg/ml): Normal

SMILES: CC(C)C1CC23OC1(O)C/C(=C\Nc1ccc(O)cc1)C2CCC3C (stereo not shown) [Compound 6, Curcumol p-hydroxy aniline hydrochloride]
- inhibition rate, Results (%) A-549 ([1]; Table 1, hydrochloride): 91.84%
- inhibition rate, Results (%) A-549 [1, 12]: 92.84%
- inhibition at 50 µg/mL ([1]; Table 3 (repeated screening)): 90.1%
- inhibition rate, Results (%) SMMC-7721 ([2]; Table 1, hydrochloride): 86.12%
- inhibition rate, Results (%) SMMC-7721 [2, 12]: 86.12%
- inhibition at 50 µg/mL ([2]; Table 3 (repeated screening)): 87.1%
- inhibition rate, Results (%) HL-60 ([3]; Table 1, hydrochloride): 93.21%
- inhibition rate, Results (%) HL-60 [3, 12]: 93.21%
- inhibition at 50 µg/mL ([3]; Table 3 (repeated screening)): 95.5%
- inhibition rate, Results (%) LLC ([4]; Table 1, hydrochloride): 88.23%
- inhibition rate, Results (%) LLC [4, 12]: 87.02%
- inhibition at 50 µg/mL ([4]; Table 3 (repeated screening)): 85%
- IC50 (ug/ml) against tumor cell lines, U-937 ([5]; hydrochloride): 0.56 µg/mL
- IC50 (ug/ml) against tumor cell lines, MCF ([6]; hydrochloride): 1.10 µg/mL
- IC50 (ug/ml) against tumor cell lines, HL-60 ([7]; hydrochloride): 0.51 µg/mL
- Inhibition rate ([8]; 0.08 μg/ml, hydrochloride): 0.89
- Inhibition rate ([8]; 0.40 μg/ml, hydrochloride): 1.7
- Inhibition rate ([8]; 2.0 μg/ml, hydrochloride): 2.99
- Inhibition rate ([8]; 10 μg/ml, hydrochloride): 13.15
- Inhibition rate ([8]; 50 μg/ml, hydrochloride): 7.07
- IC50 ([8]; five 5× serial dilutions from 50 μg/ml): > 146 µM
- IC50 ([9]; initial concentration 200 μg/ml): > 582 µM
- Cytopathy and cell status, Sample (293 cells; 200 μg/ml): Good

SMILES: C=C1CC2(OC(=O)C(C)C)OC3(CC2C(C)C)C(C)CCC13 (stereo not shown) [Compound 3, Curcumol isobutyrate]
- inhibition at 50 µg/mL ([1]; Table 1): 7.76%
- inhibition at 50 µg/mL ([1]; Table 2 (repeated screening)): 10.3%
- inhibition at 50 µg/mL ([2]; Table 1): 8.02%
- inhibition at 50 µg/mL ([2]; Table 2 (repeated screening)): 8.96%
- inhibition at 50 µg/mL ([3]; Table 1): 3.21%
- inhibition at 50 µg/mL ([3]; Table 2 (repeated screening)): 4.89%
- inhibition at 50 µg/mL ([4]; Table 1): 6.89%
- inhibition at 50 µg/mL ([4]; Table 2 (repeated screening)): 0.02%
- inhibition at 0.08 µg/mL ([8]; 0.08 μg/ml, read-out: Inhibition rate): 4.98%
- inhibition at 0.4 µg/mL ([8]; 0.40 μg/ml, read-out: Inhibition rate): 13.5%
- inhibition at 2 µg/mL ([8]; 2.0 μg/ml, read-out: Inhibition rate): 9.64%
- inhibition at 10 µg/mL ([8]; 10 μg/ml, read-out: Inhibition rate): 12.1%
- IC50 [8, 11]: > 163 µM
- inhibition at 50 µg/mL ([8]; read-out: Inhibition rate, 50 μg/ml): 5.55%
- inhibition rate of HIV-1 reverse transcriptase ([9]; 120 ug/ml): 60%
- IC50 ([9]; IC50, initial concentration 1/150 of the stock solution): < 392 µM
- IC50 [10]: 117 µM
- Cytopathy and cell status, Sample (293 cells; 200 μg/ml): Normal
